23 substances from patent US8524861B2, “Treatment of bacterial infections” (priority 2004, dated 2013) can be followed below.

Assay type in all cases: cell-based
Assay [1] concerns Staphylococcus aureus, Pseudomonas aeruginosa, and Streptococcus pneumoniae. The assay is described as follows: Antibacterial activity, overall statements over the test bacteria. An excerpt: The inventors conducted exhaustive experiments to assess the antibacterial activity of peptides from apolipoproteins and derivatives thereof. Peptides and derivatives from ApoE and ApoB were a particular focus. […] Example 1 illustrates the efficacy of the polypeptides according to the invention compared to apoE141-149 and apoB3359-3367 (i.e. non-tandem repeats) and other peptides derived from apolipoproteins.
The activity of polypeptides in accordance with the invention can be seen in Tables 5, 6, 7 and 8.
(§1) The peptides were examined for antibacterial efficacy against Staphylococcus aureus. To test the efficacy of peptides, dilutions of test peptides or PBS (for use as a control) were prepared in LB broth, and 100 μl aliquots of these placed in 96-well plates. A vial of planktonic bacterial stock was thawed in a 37° C. incubator and diluted to the level previously determined which would produce log phase growth after overnight incubation (see above). 25 μl of this bacterial dilution was then added to the test wells (some wells containing LB broth without peptide were left without any bacterial inoculation, these being used as a blank). After overnight growth, the concentration of bacteria in individual wells was assessed by measuring absorbance at 620 nm, in a microplate spectrophotometer. The average absorbance of wells for specific concentrations of peptides was calculated, and from this the percentage inhibition (relative to untreated wells) was also calculated and plotted against concentration (along with an estimate of error on that % inhibition).
(§2) The inventor constructed an expanded library of peptides derived from either apolipoprotein B or apolipoprotein E in order to further evaluate polypeptides in accordance with the invention. Further experiments were then conducted to investigate the antibacterial activity of this peptide library against the bacteria P. aeroginosa, S. aureus and S. pneumoniae. The methods used to determine the IC50 values for each peptide were as described in the Example 1.

Assay [2] concerns Staphylococcus aureus (ATCC strain 6538P). Particulars: for IC50: ATCC strain 6538P; for Activity against Staphylococcus, in particular S. aureus, in words: summary in description. On the procedure: (§3) Bacterial Stocks—ATCC derived stock bacteria were obtained from Oxoid Limited. Pseudomonas aeruginosa (ATCC strain 9027) or Staphylococcus aureus (ATCC strain 6538P) were obtained in ‘Cultiloop’ format. Stocks were prepared by inoculating 20 ml of LB broth with a single Cultiloop, and incubating overnight at 37° C. Cells present after overnight incubation were harvested by removing larger aggregates by centrifugation (3000 g, 10 minutes), and withdrawing 16 ml of the supernatant, which was likely to contain mainly planktonic bacteria. To this, 4 ml of sterile glycerol was added (the latter having been sterilised by autoclaving). The resultant suspension was divided between 15× 1 ml cryovials before freezing at −85° C.
(§4) Preliminary experiments were carried out to estimate the amount to dilute bacterial stocks which when on addition of 25 μl of diluted stock to 100 μl of fresh LB broth would result in bacteria in log phase growth after overnight incubation at 37° C.
as §1, §2

In assay [3] the test system is Pseudomonas aeruginosa (ATCC strain 9027). As to conditions: for IC50: ATCC strain 9027; for Effectiveness against Pseudomonadales, in particular P. aeruginosa, in words: summary in description. On the procedure: as §3, §4, §1
Peptides in accordance with the invention were also examined for antibacterial efficacy against Pseudomonas aeruginosa using the same technique as described above to calculate the IC50 values.
Points were obtained by dividing the average for six treated wells by the average for six untreated wells, and bars show an estimate of the error for these calculated values.
as §2

Where no end group is shown, it is not given here. Where only a bound is given, the exact number is not on record here.

For CRKCRKRCCCRKCRKRCC [MU_12], in assay [1], the “Antibacterial activity, in words, bacterium not specified” value is reported as “do not show antibacterial activity”. Turning to “WRKWRKFFFRKWRKRWW-NH2 (C-terminus assumed) [MU_116]”, the IC50 in assay [2] stood at 6.5 µM; in assay [3], 14 µM. In assay [3], “WRKWRKRWRKWRKR-NH2 (C-terminus assumed) [GIN 32]” gave an IC50 of 5 µM. Turning to “WRWRRRWRKWRWRRRWRK-NH2 (C-terminus assumed) [MU_25]”, the IC50 in assay [2] and in assay [3] was greater than 53 µM in each case. As to DRKDRKRDDDRKDRKRDD [MU_3], the “Antibacterial activity, in words, bacterium not specified” value in assay [1] was “do not show antibacterial activity”. On to “WRKWRKRWWFRKFRKRFF-NH2 (C-terminus assumed) [MU_117]”, for which the values for the IC50 in assay [2] and in assay [3] were 7 µM and 10 µM, respectively.

On to “WRKRWWRWRKRWWR-NH2 (C-terminus assumed) [MU_81]”, for which the values for the IC50 in assay [2] and in assay [3] were 20 µM and 28 µM, respectively. Turning to “Ac-WRKWRKRLLLRKLRKRLL-NH2 (N-terminus and C-terminus assumed) [MU_114]”, in assay [2], it took 5.5 µM to reach half-maximal inhibition (IC50) and the “Activity against Staphylococcus, in particular S. aureus, in words” value was “particularly active”. For the same substance, the “Effectiveness against Pseudomonadales, in particular P. aeruginosa, in words” value in assay [3] is “particularly effective”. In the case of “MRKMRKRMMMRKMRKRMM-NH2 (C-terminus assumed) [MU_5]”, the IC50 in assay [2] and in assay [3] was greater than 53 µM throughout. For “RWRKRGRKRWRKRGRK-NH2 (C-terminus assumed) [MU_69]”, the values for the concentration for half-maximal inhibition (IC50) in assay [2] and in assay [3] were 27 µM and greater than 53 µM, respectively. With “LRKLRKRLL [apoE141-149, reference compound]”, the “Antibacterial activity, in words, bacterium not specified” value in assay [1] is reported as “no detectable antibacterial activity”. Regarding LRKLRKRLLLRK [GIN 05], the “Antibacterial activity, in words, bacterium not specified” value in assay [1] is listed as “do not show antibacterial activity”. On the same count and under the same terms, the same measure for “RLTRKRGLK [apoB3359-3367, monomeric 9-mer of apolipoprotein B, reference compound]”: “no detectable antibacterial activity”. With “WRWKKKWRKWRWKKKWRK-NH2 (C-terminus assumed) [MU_26]”, the concentration for half-maximal inhibition (IC50) in assay [2] and in assay [3] was 52 µM throughout. In turn, “Ac-LRKLRKRLLWRKWRKRLL-NH2 (N-terminus and C-terminus assumed) [MU_113]” displayed an IC50 in assay [2] of 11 µM. For the same substance, in assay [3], the “Effectiveness against Pseudomonadales, in particular P. aeruginosa, in words” value is “particularly effective”. Consider “Ac-LRKRLLLRKLRKRLL-NH2 (N-terminus and C-terminus assumed) [GIN 02]”, for which, in assay [3], inhibition was half-maximal at 8.5 µM (IC50) and the “Effectiveness against Pseudomonadales, in particular P. aeruginosa, in words” value is reported as “particularly effective”.

With “RWRKRWRKRWRKRWRK-NH2 (C-terminus assumed) [MU_71]”, the half-inhibitory concentration (IC50) in assay [2] is 18.5 µM; in assay [3] it was 28 µM. The matching figures for “IRKIRKRIIIRKIRKRII-NH2 (C-terminus assumed) [MU_8]”: greater than 53 µM and 45 µM. Consider “RLTRKRGRLTRKRG-NH2 (C-terminus assumed) [MU_74]”, for which the figures for the concentration for half-maximal inhibition (IC50) in assay [2] and in assay [3] were greater than 53 µM and 31 µM, respectively.

With “RWRKRWRWRKRWRWRKRW-NH2 (C-terminus assumed) [MU 84]”, the IC50 in assay [2] turned out to be 15 µM; in assay [3], 53 µM. For “YRKYRKRYYYRKYRKRYY-NH2 (C-terminus assumed) [MU_6]”, the “Activity against Staphylococcus, in particular S. aureus, in words” value in assay [2] is listed as “particularly active”. Further, the half-inhibitory concentration (IC50) in assay [3] is greater than 53 µM. “Ac-LRKLRKRLLWRKWRKRWW-NH2 (N-terminus and C-terminus assumed) [MU_111]”: the IC50 stood at 7 µM in assay [2] and 12.5 µM in assay [3]. Consider “LRVRLASHLRKLRKRLLRDADDLQKRLAVY LRVRLASHLRKLRKRLLRDADDLQKRLAVY (LRVRLASHLRKLRKRLLRDADDLQKRLAVYLRVRLASHLRKLRKRLLRDADDLQKRLAVY) [tandem repeat of Azuma's peptide, 60-mer dimer of apoE133-162]”, for which, in assay [1], the “Antibacterial activity, in words, bacterium not specified” value is “improved antibacterial efficacy”.

For orientation: IC50 means the concentration at which inhibition is half-maximal. Lower therefore signals higher potency.
